In brackets after ≈: the same amount, converted by molar mass. Numbered stars: 1 amine (or outer) side, 2 acyl side, 3 side chain; on linkers, the order of the positions; unused ones are H or OH. Square brackets hold non-standard residues; d marks the D form. Peptide text beside a SMILES is read from it. * marks the point of attachment. ξ: configuration not given here. X1 = N=C1NCC(C(O)C(N[*:1])C(=O)[*:2])N1C1OC(CO)C(O)C(O)C1O; ξEnduracididine(βξ-OH,4'ξ) = N=C1NCC(C(O)C(N)C(=O)O)N1; X2 = OCC1OC(OC2C(CO)OC(*)C(O)C2O)C(O)C(O)C1O; Diphenylacetyl = O=C(C(c1ccccc1)c1ccccc1)*; ξPhe(βξ-Me) = CC(c1ccccc1)C(N)C(=O)O
What was measured:
Experiment in all cases: In vitro antibacterial evaluation: minimum inhibitory concentration (MIC), broth dilution method
Type in all cases: cell-based
Enterococcus sp. = test system: Enterococcus sp.
Method: (§1) The minimum inhibitory concentration (MIC), the lowest concentration of the antibiotic which inhibits growth of the test organism, is determined by the broth dilution method using Muller-Hinton II […] (Baltimore Biological Laboratories) following the recommendations of the National Committee for Clinical Laboratory Standards [Methods for dilution antimicrobial susceptibility tests for bacteria that grow aerobically, approved standard M7-A2, National Committee for Clinical Laboratory Standards, Villanova, Pa].
(§2) An inoculum level of 5×10^5 CFU/mL, and a range of antibiotic concentrations (64-0.06 μg/mL) is used. […] The test organisms include a spectrum of Gram-positive bacteria comprised of Staphylococcus sp., Streptococcus sp. and Enterococcus sp. These organisms include recent clinical isolates that are resistant to methicillin, penicillin and/or vancomycin.

Staphylococcus sp. = settings: for MIC Coagulase Negative Staphylococcus (GC 4549): strain GC 4549; for MIC Coagulase Negative Staphylococcus (ID-3941): strain ID-3941
Method: as §1, §2

Streptococcus sp. = test system: Streptococcus sp.
Method: as §1, §2

[1] = broth dilution, 18 hours at 35° C.
[2] = broth dilution, inoculum 5×10^5 CFU/mL, 18 hours at 35° C.

`CC(c1ccccc1)C1NC(=O)CNC(=O)C(COC(=O)C(c2ccccc2)c2ccccc2)NC(=O)C(C(O)C2CNC(=N)N2C2OC(CO)C(O)C(O)C2O)NC(=O)C(C(O)C2CNC(=N)N2)NC(=O)C(Cc2ccc(OC3OC(CO)C(OC4OC(CO)C(O)C(O)C4O)C(O)C3O)cc2)NC1=O` (stereo not drawn) [Example 96a, Cyclo[glycyl-β-methylphenylalanyl-O-[4-O-hexopyranosylhexopyranosyl)tyrosyl-3-(2-iminoimidazolidin-4-yl)seryl-3-(3-hexopyranosyl-2-iminoimidazolidin-4-yl)seryl-O-(diphenylacetyl)-seryl]] (cyclo(G[ξPhe(βξ-Me)]Y(X2)[ξEnduracididine(βξ-OH,4'ξ)][X1]S(Diphenylacetyl)); configuration not given here) was tested. Which “MIC Enterococcus faecium (GC 4557)” value (Enterococcus sp.; strain GC 4557) did it give?
Its value is 32 µg/mL (≈ 21.5 µM).

And the “MIC Coagulase Negative Staphylococcus (GC 4549)” value (Staphylococcus sp.)?
Its value is 64 µg/mL (≈ 43 µM).

What about the “MIC Coagulase Negative Staphylococcus (GC 4549)” value (Staphylococcus sp.; [1]) of the same compound?
Its value is 64 µg/mL (≈ 43 µM).

And the “MIC Coagulase Negative Staphylococcus (ID-3941)” value (Staphylococcus sp.)?
The value was 64 µg/mL (≈ 43 µM).

What about the “MIC Coagulase Negative Staphylococcus (ID-3941)” value (Staphylococcus sp.; [1]) of the same compound?
Its value is 64 µg/mL (≈ 43 µM).

What about the “MIC Streptococcus agalactiae (GC 4564)” value (Streptococcus sp.; strain GC 4564) of the same compound?
Its value is 32 µg/mL (≈ 21.5 µM).

What about the “MIC Streptococcus pneumoniae (GC 4565)” value (Streptococcus sp.; strain GC 4565) of the same compound?
The value was 16 µg/mL (≈ 10.7 µM).

What about the “MIC Streptococcus pyogenes (ID-3187)” value (Streptococcus sp.; strain ID-3187) of the same compound?
Its value is 32 µg/mL (≈ 21.5 µM).

`CC(c1ccccc1)C1NC(=O)CNC(=O)C(CO)NC(=O)C(C(O)C2CNC(=N)N2C2OC(CO)C(O)C(O)C2O)NC(=O)C(C(O)C2CNC(=N)N2)NC(=O)C(Cc2ccc(OC3OC(CO)C(OC4OC5COC(c6ccc(C(=O)c7cc(I)c(I)c(I)c7)cc6)OC5C(O)C4O)C(O)C3O)cc2)NC1=O` (stereo not drawn) [Example 187] was tested. Which “MIC Enterococcus avium (GC 4558)” value (Enterococcus sp.; Enterococcus avium (GC 4558), 18 hours at 35° C.) did it give?
Its value is 16 µg/mL (≈ 8.58 µM).

And the “MIC Enterococcus faecalis (ATCC 29212)” value (Enterococcus sp.; Enterococcus faecalis (ATCC 29212), 18 hours at 35° C.)?
The value was 64 µg/mL (≈ 34.3 µM).

What about the “MIC Enterococcus faecalis (GC 2242)” value (Enterococcus sp.; Enterococcus faecalis (GC 2242), 18 hours at 35° C.) of the same compound?
The value was 64 µg/mL (≈ 34.3 µM).

And the “MIC Enterococcus faecalis (GC 2691)” value (Enterococcus sp.; Enterococcus faecalis (GC 2691), 18 hours at 35° C.)?
The value was 16 µg/mL (≈ 8.58 µM).

What about the “MIC Enterococcus faecalis (GC 4552)” value (Enterococcus sp.; Enterococcus faecalis (GC 4552), 18 hours at 35° C.) of the same compound?
Its value is 64 µg/mL (≈ 34.3 µM).

And the “MIC Enterococcus faecalis (GC 4553)” value (Enterococcus sp.; Enterococcus faecalis (GC 4553), 18 hours at 35° C.)?
Its value is 32 µg/mL (≈ 17.2 µM).

And the “MIC Enterococcus faecalis (GC 4554)” value (Enterococcus sp.; Enterococcus faecalis (GC 4554), 18 hours at 35° C.)?
The value was 64 µg/mL (≈ 34.3 µM).

And the “MIC Enterococcus faecalis (GC 6189)” value (Enterococcus sp.; Enterococcus faecalis (GC 6189), 18 hours at 35° C.)?
The value was 16 µg/mL (≈ 8.58 µM).

And the “MIC Enterococcus faecium (GC 2243)” value (Enterococcus sp.; Enterococcus faecium (GC 2243), 18 hours at 35° C.)?
The value was 16 µg/mL (≈ 8.58 µM).

What about the “MIC Enterococcus faecium (GC 4557)” value (Enterococcus sp.; Enterococcus faecium (GC 4557), 18 hours at 35° C.) of the same compound?
Its value is 16 µg/mL (≈ 8.58 µM).

What about the “MIC Enterococcus avium (GC 4558)” value (Enterococcus sp.; [2]) of the same compound?
Its value is 16 µg/mL (≈ 8.58 µM).

What about the “MIC Enterococcus faecalis (ATCC 29212)” value (Enterococcus sp.; [2]) of the same compound?
The value was 64 µg/mL (≈ 34.3 µM).

What about the “MIC Enterococcus faecalis (GC 2242)” value (Enterococcus sp.; [2]) of the same compound?
The value was 64 µg/mL (≈ 34.3 µM).

What about the “MIC Enterococcus faecalis (GC 2691)” value (Enterococcus sp.; [2]) of the same compound?
Its value is 16 µg/mL (≈ 8.58 µM).

What about the “MIC Enterococcus faecalis (GC 4552)” value (Enterococcus sp.; [2]) of the same compound?
The value was 64 µg/mL (≈ 34.3 µM).

And the “MIC Enterococcus faecalis (GC 4553)” value (Enterococcus sp.; [2])?
The value was 32 µg/mL (≈ 17.2 µM).

And the “MIC Enterococcus faecalis (GC 4554)” value (Enterococcus sp.; [2])?
The value was 64 µg/mL (≈ 34.3 µM).

What about the “MIC Enterococcus faecalis (GC 6189)” value (Enterococcus sp.; [2]) of the same compound?
The value was 16 µg/mL (≈ 8.58 µM).

And the “MIC Enterococcus faecium (GC 2243)” value (Enterococcus sp.; [2])?
Its value is 16 µg/mL (≈ 8.58 µM).

And the “MIC Enterococcus faecium (GC 4557)” value (Enterococcus sp.; [2])?
The value was 16 µg/mL (≈ 8.58 µM).

What about the “MIC Staphylococcus aureus (ATCC 29213)” value (Staphylococcus sp.; strain ATCC 29213) of the same compound?
The value was 64 µg/mL (≈ 34.3 µM).

And the “MIC Staphylococcus aureus (GC 1131)” value (Staphylococcus sp.; strain GC 1131)?
Its value is 64 µg/mL (≈ 34.3 µM).

And the “MIC Staphylococcus aureus (GC 3051)” value (Staphylococcus sp.; strain GC 3051)?
Its value is 64 µg/mL (≈ 34.3 µM).

And the “MIC Staphylococcus aureus (GC 3053)” value (Staphylococcus sp.; strain GC 3053)?
The value was 32 µg/mL (≈ 17.2 µM).

What about the “MIC Staphylococcus aureus (GC 4541)” value (Staphylococcus sp.; strain GC 4541) of the same compound?
Its value is 64 µg/mL (≈ 34.3 µM).

What about the “MIC Staphylococcus aureus (GC 4542)” value (Staphylococcus sp.; strain GC 4542) of the same compound?
Its value is 64 µg/mL (≈ 34.3 µM).

What about the “MIC Staphylococcus aureus-SMITH (GC 4543)” value (Staphylococcus sp.; strain GC 4543) of the same compound?
Its value is 64 µg/mL (≈ 34.3 µM).

What about the “MIC Staphylococcus aureus (GC 4544)” value (Staphylococcus sp.; strain GC 4544) of the same compound?
Its value is 64 µg/mL (≈ 34.3 µM).

And the “MIC Staphylococcus aureus (GC 4545)” value (Staphylococcus sp.; strain GC 4545)?
Its value is 64 µg/mL (≈ 34.3 µM).

And the “MIC Coagulase Negative Staphylococcus (GC 4548)” value (Staphylococcus sp.; strain GC 4548)?
Its value is 16 µg/mL (≈ 8.58 µM).

And the “MIC Coagulase Negative Staphylococcus (GC 4549)” value (Staphylococcus sp.)?
The value was 64 µg/mL (≈ 34.3 µM).

And the “MIC Coagulase Negative Staphylococcus (GC 4551)” value (Staphylococcus sp.; strain GC 4551)?
Its value is 32 µg/mL (≈ 17.2 µM).

And the “MIC Coagulase Negative Staphylococcus (GC 6257)” value (Staphylococcus sp.; strain GC 6257)?
Its value is 32 µg/mL (≈ 17.2 µM).

And the “MIC Streptococcus agalactiae (GC 4564)” value (Streptococcus sp.; Streptococcus agalactiae (GC 4564), 18 hours at 35° C.)?
The value was less than 0.12 µg/mL.

And the “MIC Streptococcus pneumoniae (ATCC 6301)” value (Streptococcus sp.; Streptococcus pneumoniae (ATCC 6301), 18 hours at 35° C.)?
Its value is less than 0.12 µg/mL.

And the “MIC Streptococcus pneumoniae (GC 1894)” value (Streptococcus sp.; Streptococcus pneumoniae (GC 1894), 18 hours at 35° C.)?
The value was less than 0.12 µg/mL.

And the “MIC Streptococcus pneumoniae (GC 4565)” value (Streptococcus sp.; Streptococcus pneumoniae (GC 4565), 18 hours at 35° C.)?
Its value is less than 0.12 µg/mL.

What about the “MIC Streptococcus pyogenes (GC 4563)” value (Streptococcus sp.; Streptococcus pyogenes (GC 4563), 18 hours at 35° C.) of the same compound?
The value was 0.5 µg/mL (≈ 0.268 µM).

And the “MIC Streptococcus agalactiae (GC 4564)” value (Streptococcus sp.; [2])?
The value was less than 0.12 µg/mL.

What about the “MIC Streptococcus pneumoniae (ATCC 6301)” value (Streptococcus sp.; [2]) of the same compound?
The value was less than 0.12 µg/mL.

And the “MIC Streptococcus pneumoniae (GC 1894)” value (Streptococcus sp.; [2])?
Its value is less than 0.12 µg/mL.

And the “MIC Streptococcus pneumoniae (GC 4565)” value (Streptococcus sp.; [2])?
Its value is less than 0.12 µg/mL.

And the “MIC Streptococcus pyogenes (GC 4563)” value (Streptococcus sp.; [2])?
Its value is 0.5 µg/mL (≈ 0.268 µM).
